Key:
[1] = target: T1, hFASN enzyme (full length) (Homo sapiens, UniProt P49327); assay: Fatty Acid Synthase (FASN) inhibition scintillation proximity assay; type: biochemical; conditions: for inhibition at 10 µM: read-out: Human FASN % inhibition @ 10 μM, 10 μM test compound; for IC50: read-out: Human FASN pIC50 (converted)
T1 construct: 10 μL hFASN enzyme (full length, 300 ng, purified in house); made in house
Summary of the method: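 Read-out relies on hydrophobic ³H-palmitate product, formed from ³H-acetyl-CoA and malonyl-CoA, binding streptavidin imaging beads, measured at 610±20 nm after at least 24 h. Full-length enzyme (300 ng) in phosphate buffer pH 7.5 with DTT; eight compound concentrations, 0.01–30 μM.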

A2780 ovarian cells [2] = assay: A2780 ovarian cell proliferation assay in lipid reduced medium, with palmitate (MTT); type: cell-based; conditions: Homo sapiens, A2780, 96 h; read-out: pIC50 A2780 Ovarian Cell, With Palmitate (converted)
Summary of the method: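 In this palmitate-supplemented format, compound dilutions (30 μM down to 0.01 μM) are added to cells in lipid-reduced serum with 25 μM palmitate, 0.2% fatty-acid-free BSA and 0.25% ethanol. After four days (96 h) MTT absorbance at 544 nm is recorded and fitted by minimum sum of squares.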

[3] = test system: PC-3M-Luc-C6 prostate cells; assay: In vitro PC-3M-Luc-C6 prostate cell proliferation assay in lipid reduced medium; type: cell-based; conditions: 96 h, read-out: pIC50 PC-3M-Luc-C6 prostate cell (converted)
[4] = target: Fatty Acid Synthase Keto-reductase Domain (FASN KR) (Homo sapiens, UniProt P49327); assay: Fatty Acid Synthase keto-reductase domain (FASN KR) inhibition, NADPH oxidation at 340 nm
Sequence of Fatty Acid Synthase Keto-reductase Domain (FASN KR) (P49327 whole entry, the tested form may be a part): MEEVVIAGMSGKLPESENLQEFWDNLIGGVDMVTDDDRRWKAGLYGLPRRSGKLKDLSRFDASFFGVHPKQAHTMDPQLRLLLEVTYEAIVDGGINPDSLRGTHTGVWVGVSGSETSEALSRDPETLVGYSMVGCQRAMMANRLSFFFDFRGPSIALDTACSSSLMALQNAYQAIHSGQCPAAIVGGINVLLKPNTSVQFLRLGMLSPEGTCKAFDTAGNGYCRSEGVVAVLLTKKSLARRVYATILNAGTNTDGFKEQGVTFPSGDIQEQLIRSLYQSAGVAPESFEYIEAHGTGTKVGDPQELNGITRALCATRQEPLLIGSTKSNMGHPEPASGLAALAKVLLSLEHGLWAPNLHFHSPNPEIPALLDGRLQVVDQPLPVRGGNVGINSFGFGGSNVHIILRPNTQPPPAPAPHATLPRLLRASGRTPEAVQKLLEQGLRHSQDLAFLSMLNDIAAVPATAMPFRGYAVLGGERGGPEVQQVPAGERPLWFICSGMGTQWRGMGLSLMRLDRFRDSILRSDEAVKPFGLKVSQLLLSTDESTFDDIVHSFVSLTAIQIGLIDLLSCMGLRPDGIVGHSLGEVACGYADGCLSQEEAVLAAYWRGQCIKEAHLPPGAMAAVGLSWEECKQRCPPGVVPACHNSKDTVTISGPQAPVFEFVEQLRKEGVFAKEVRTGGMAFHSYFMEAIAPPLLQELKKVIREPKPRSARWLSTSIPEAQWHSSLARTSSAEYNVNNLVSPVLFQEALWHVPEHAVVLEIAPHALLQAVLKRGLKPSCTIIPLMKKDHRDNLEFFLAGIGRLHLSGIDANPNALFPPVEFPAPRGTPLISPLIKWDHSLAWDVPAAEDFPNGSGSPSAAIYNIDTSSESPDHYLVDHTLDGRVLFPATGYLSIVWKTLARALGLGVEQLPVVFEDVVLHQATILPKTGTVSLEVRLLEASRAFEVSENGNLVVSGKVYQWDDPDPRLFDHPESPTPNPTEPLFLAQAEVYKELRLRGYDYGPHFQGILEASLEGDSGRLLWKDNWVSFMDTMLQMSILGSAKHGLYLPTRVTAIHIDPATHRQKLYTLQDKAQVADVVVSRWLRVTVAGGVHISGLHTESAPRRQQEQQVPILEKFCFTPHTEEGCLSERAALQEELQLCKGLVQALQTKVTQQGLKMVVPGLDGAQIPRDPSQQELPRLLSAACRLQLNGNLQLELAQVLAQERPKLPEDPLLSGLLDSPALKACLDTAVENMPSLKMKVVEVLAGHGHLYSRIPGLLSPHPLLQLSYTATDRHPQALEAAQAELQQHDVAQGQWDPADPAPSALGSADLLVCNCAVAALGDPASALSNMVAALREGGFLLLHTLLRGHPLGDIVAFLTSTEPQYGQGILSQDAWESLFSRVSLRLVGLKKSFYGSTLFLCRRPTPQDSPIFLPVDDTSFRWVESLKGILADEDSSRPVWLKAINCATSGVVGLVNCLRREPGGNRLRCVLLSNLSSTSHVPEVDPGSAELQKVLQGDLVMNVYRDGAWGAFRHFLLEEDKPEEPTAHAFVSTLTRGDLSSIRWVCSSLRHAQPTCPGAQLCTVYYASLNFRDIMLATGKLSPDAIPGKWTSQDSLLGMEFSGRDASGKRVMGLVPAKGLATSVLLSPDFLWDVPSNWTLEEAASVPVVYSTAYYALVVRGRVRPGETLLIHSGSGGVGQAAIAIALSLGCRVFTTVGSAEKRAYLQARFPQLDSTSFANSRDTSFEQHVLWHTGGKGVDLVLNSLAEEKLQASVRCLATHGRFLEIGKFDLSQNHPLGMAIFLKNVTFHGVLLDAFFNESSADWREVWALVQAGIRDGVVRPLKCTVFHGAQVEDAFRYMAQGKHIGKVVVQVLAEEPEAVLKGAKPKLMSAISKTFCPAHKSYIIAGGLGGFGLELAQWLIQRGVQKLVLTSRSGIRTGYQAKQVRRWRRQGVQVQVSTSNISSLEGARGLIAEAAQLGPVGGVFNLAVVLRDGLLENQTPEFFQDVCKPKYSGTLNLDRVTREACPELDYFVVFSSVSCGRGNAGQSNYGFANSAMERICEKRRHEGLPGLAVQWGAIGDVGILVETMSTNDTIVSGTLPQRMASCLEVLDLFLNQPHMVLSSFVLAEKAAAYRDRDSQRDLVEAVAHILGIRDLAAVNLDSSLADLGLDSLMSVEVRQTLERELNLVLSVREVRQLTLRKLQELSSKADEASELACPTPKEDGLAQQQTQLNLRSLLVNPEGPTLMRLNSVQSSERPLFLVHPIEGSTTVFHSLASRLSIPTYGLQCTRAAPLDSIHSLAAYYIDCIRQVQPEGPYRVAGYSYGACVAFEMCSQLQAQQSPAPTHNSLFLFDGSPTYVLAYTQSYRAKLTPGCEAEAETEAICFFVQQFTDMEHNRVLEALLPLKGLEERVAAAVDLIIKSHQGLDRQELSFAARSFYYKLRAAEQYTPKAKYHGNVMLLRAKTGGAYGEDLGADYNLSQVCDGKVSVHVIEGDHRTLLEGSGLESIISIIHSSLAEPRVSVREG
Procedure: After 20 minutes incubation at room temperature the plate was measured again (T2).
The decrease in absorbance was calculated as (Absorbance before incubation T1)−(Absorbance following incubation T2).
A plot of Controlmin versus test compound concentration was fitted to a 4-parameter logistic curve using a non-linear least squares regression method.

[5] = test system: LNCaP-Vancouver prostate cells; assay: In vitro LNCaP Vancouver prostate cell proliferation assay in lipid reduced medium; type: cell-based; conditions: read-out: pIC50 LNCaP_Vancouver prostate cell (converted)
A2780 ovarian cells [6] = assay: A2780 ovarian cell proliferation assay in lipid reduced medium, without palmitate (MTT); type: cell-based; conditions: Homo sapiens, A2780, 96 h; read-out: pIC50 A2780 Ovarian Cell, Without Palmitate (converted)

T1 sequence (P49327 whole entry): as the sequence (P49327 whole entry, the tested form may be a part) above

An inhibition at 10 µM [1] of 102%, an IC50 [1] of 0.0263 µM and an IC50 (A2780 ovarian cells [2]) of 2.09 µM were found for O=C(C1CCO1)N1CC(CN2C(=O)C3(CC3)N=C2c2ccc(-c3ccc4cc(F)ccc4c3)cc2F)C1 (centres unmarked) [compound 369, 5-(2-fluoro-4-(6-fluoronaphthalen-2-yl)phenyl)-6-((1-(oxetan-2-carbonyl)azetidin-3-yl)methyl)-4,6-diazaspiro[2.4]hept-4-en-7-one] in this work. The IC50 [3] was 0.01 µM, the IC50 [4] was 0.0372 µM and the IC50 [5] was 0.0457 µM. The IC50 (A2780 ovarian cells [6]) was 0.00427 µM.

An inhibition at 10 µM [1] of 83%, an IC50 [1] of 1.1 µM and an IC50 (A2780 ovarian cells [2]) of over 10 µM were found for Cc1cc(-c2ccc3ccc(C(N)=O)nc3c2)ccc1C1=NC2(CC2)C(=O)N1CC1CN(C(=O)C2(C)CC2)C1 [compound 579, 7-{3-Methyl-4-[6-({1-[(1-methylcyclopropyl)carbonyl]azetidin-3-yl}methyl)-7-oxo-4,6-diazaspiro[2.4]hept-4-en-5-yl]phenyl}quinoline-2-carboxamide] in this work. The IC50 [3] was 2 µM, the IC50 [4] was 4.57 µM and the IC50 [5] was 4.57 µM. For the same compound, the IC50 (A2780 ovarian cells [6]) was 1.1 µM.

An inhibition at 10 µM [1] of 101%, an IC50 [1] of 0.0603 µM and an IC50 (A2780 ovarian cells [2]) of over 10 µM were found for O=C(C1CC1)N1CC(CN2C(=O)C3(CC3)N=C2c2ccc(-c3ccc4occc4c3)cc2)C1 [compound 49, 5-[4-(1-Benzofuran-5-yl)phenyl]-6-{[1-(cyclopropylcarbonyl)azetidin-3-yl]methyl}-4,6-diazaspiro[2.4]hept-4-en-7-one] in this work. It also gave an IC50 [3] of 0.219 µM, an IC50 [4] of 0.155 µM and an IC50 [5] of 0.912 µM. It also gave an IC50 (A2780 ovarian cells [6]) of 0.331 µM.

An inhibition at 10 µM [1] of 98%, an IC50 [1] of 0.0234 µM and an IC50 (A2780 ovarian cells [2]) of over 10 µM were found for N#Cc1ccc2cc(-c3ccc(C4=NC5(CC5)C(=O)N4CC4CN(C(=O)C5CCO5)C4)c(F)c3)ccc2c1 (centres unmarked) [compound 226, 6-(3-fluoro-4-(6-((1-(oxetane-2-carbonyl)azetidin-3-yl)methyl)-7-oxo-4,6-diazaspiro[2..4]hept-4-en-5-yl)phenyl)-2-naphthonitrile] in this work. The IC50 [3] was about 0.00589 µM, the IC50 [4] was 0.024 µM and the IC50 [5] was 0.0219 µM. For the same compound, the IC50 (A2780 ovarian cells [6]) was 0.00234 µM.

An inhibition at 10 µM [1] of 101%, an IC50 [1] of 0.0324 µM and an IC50 (A2780 ovarian cells [2]) of over 10 µM were found for O=C(C1CC1)N1CC[C@@H](CN2C(=O)C3(CC3)N=C2c2ccc(-c3nc4ccccc4o3)cc2F)C1 [compound 251, (R)-5-(4-(benzo[d]oxazol-2-yl)-2-fluorophenyl)-6-((1-(cyclopropanecarbonyl)pyrrolidin-3-yl)methyl)-4,6-diazaspiro[2.4]hept-4-en-7-one] in this work. It also gave an IC50 [3] of about 0.0417 µM, an IC50 [4] of 0.0427 µM and an IC50 [5] of 0.138 µM. The IC50 (A2780 ovarian cells [6]) was 0.0724 µM.

An inhibition at 10 µM [1] of 102%, an IC50 [1] of 0.0234 µM and an IC50 (A2780 ovarian cells [2]) of over 10 µM were found for Cn1ccc2cc(-c3ccc(C4=NC5(CC5)C(=O)N4C[C@@H]4CCN(C(=O)C5CC5)C4)cc3)ccc21 [compound 215, (R)-6-((1-(cyclopropanecarbonyl)pyrrolidin-3-yl)methyl)-5-(4-(1-methyl-1H-indol-5-yl)phenyl)-4,6-diazaspiro[2.4]hept-4-en-7-one] in this work. For the same compound, the IC50 [3] was 0.0158 µM, the IC50 [4] was 0.0245 µM and the IC50 [5] was 0.0708 µM. The IC50 (A2780 ovarian cells [6]) was 0.0204 µM.

An inhibition at 10 µM [1] of 100%, an IC50 [1] of 0.186 µM and an IC50 (A2780 ovarian cells [2]) of 3.89 µM were found for Cc1cc(-c2ccc(-c3ccn(CC4CC4)n3)cc2)ccc1C1=NC2(CC2)C(=O)N1CC1CN(C(=O)C2(C)CC2)C1 [compound 601, 5-{4′-[1-(Cyclopropylmethyl)-1H-pyrazol-3-yl]-3-methylbiphenyl-4-yl}-6-({1-[(1-methylcyclopropyl)carbonyl]azetidin-3-yl}methyl)-4,6-diazaspiro[2.4]hept-4-en-7-one] in this work. It also gave an IC50 [3] of 0.316 µM, an IC50 [4] of 0.501 µM and an IC50 [5] of 1.02 µM. It also gave an IC50 (A2780 ovarian cells [6]) of 0.219 µM.

An inhibition at 10 µM [1] of 100%, an IC50 [1] of 0.049 µM and an IC50 (A2780 ovarian cells [2]) of over 10 µM were found for O=C(C1CC1)N1CC[C@@H](CN2C(=O)C3(CC3)N=C2c2ccc(-c3cccc4ncccc34)cc2F)C1 [compound 250, (R)-6-((1-(cyclopropanecarbonyl)pyrrolidin-3-yl)methyl)-5-(2-fluoro-4-(quinolin-5-yl)phenyl)-4,6-diazaspiro[2.4]hept-4-en-7-one] in this work. The IC50 [3] was 0.234 µM, the IC50 [4] was 0.0692 µM and the IC50 [5] was 0.692 µM. It also gave an IC50 (A2780 ovarian cells [6]) of 0.302 µM.

An inhibition at 10 µM [1] of 101%, an IC50 [1] of 0.0162 µM and an IC50 (A2780 ovarian cells [2]) of over 10 µM were found for O=C(N1CC(CN2C(=O)C3(CC3)N=C2c2ccc(-c3ccc4ccccc4c3)cc2F)C1)C1(O)CC1 [compound 372, 5-(2-fluoro-4-(naphthalen-2-yl)phenyl)-6-((1-(1-hydroxycyclopropanecarbbonyl)azetidin-3-yl)methyl)-4,6-diazaspiro[2.4]hept-4-en-7-one] in this work. The IC50 [3] was 0.0132 µM, the IC50 [4] was 0.049 µM and the IC50 [5] was 0.0759 µM. The IC50 (A2780 ovarian cells [6]) was 0.00501 µM.

An inhibition at 10 µM [1] of 98%, an IC50 [1] of 0.0501 µM and an IC50 (A2780 ovarian cells [2]) of over 10 µM were found for Cc1cc(-c2cccc3[nH]ncc23)ccc1C1=NC2(CC2)C(=O)N1C[C@@H]1CCN(C(=O)C2CC2)C1 [compound 306, (R)-5-(4-(1H-indazol-4-yl)-2-methylphenyl)-6-((1-(cyclopropanecarbonyl)pyrrolidin-3-yl)methyl)-4,6-diazaspiro[2.4]hept-4-en-7-one] in this work. The IC50 [3] was 0.017 µM, the IC50 [4] was 0.105 µM and the IC50 [5] was 0.513 µM. It also gave an IC50 (A2780 ovarian cells [6]) of 0.0178 µM.

An inhibition at 10 µM [1] of 100%, an IC50 [1] of 0.0186 µM and an IC50 (A2780 ovarian cells [2]) of 4.17 µM were found for COc1ccc2cc(-c3ccc(C4=NC5(CC5)C(=O)N4CC4CN(C(=O)C5(C)CC5)C4)c(C)c3)ccc2c1 [compound 332, 5-(4-(6-methoxynaphthalen-2-yl)-2-methylphenyl)-6-((1-(1-methylcyclopropanecarbonyl)azetidin-3-yl)methyl)-4,6-diazaspiro[2.4]hept-4-en-7-one] in this work. The IC50 [3] was 0.0123 µM, the IC50 [4] was 0.0603 µM and the IC50 [5] was 0.107 µM. For the same compound, the IC50 (A2780 ovarian cells [6]) was 0.0123 µM.

An inhibition at 10 µM [1] of 103%, an IC50 [1] of 0.0398 µM and an IC50 (A2780 ovarian cells [2]) of 9.12 µM were found for Cc1cc(-c2ccc(-c3cnn(C4CC4)c3)cc2)ccc1C1=NC2(CC2)C(=O)N1CC1CN(C(=O)C2CC2)C1 [compound 326, 6-((1-(cyclopropanecarbonyl)azetidin-3-yl)methyl)-5-(4′-(1-cyclopropyl-1H-pyrazol-4-yl)-3-methyl-[1,1′-biphenyl]-4-yl)-4,6-diazaspiro[2.4]hept-4-en-7-one] in this work. The IC50 [3] was 0.049 µM, the IC50 [4] was 0.407 µM and the IC50 [5] was 0.17 µM. For the same compound, the IC50 (A2780 ovarian cells [6]) was about 0.012 µM.

An inhibition at 10 µM [1] of 95%, an IC50 [1] of 0.0724 µM and an IC50 (A2780 ovarian cells [2]) of over 10 µM were found for Cc1nn(C)c2ccc(-c3ccc(C4=NC5(CC5)C(=O)N4C[C@@H]4CCN(C(=O)C5CC5)C4)cc3)cc12 [compound 218, (R)-6-((1-(cyclopropanecarbonyl)pyrrolidin-3-yl)methyl)-5-(4-(1,3-dimethyl-1H-indazol-5-yl)phenyl)-4,6-diazaspiro[2.4]hept-4-en-7-one] in this work. It also gave an IC50 [3] of 0.0724 µM, an IC50 [4] of 0.102 µM and an IC50 [5] of 0.417 µM. It also gave an IC50 (A2780 ovarian cells [6]) of 0.0851 µM.

An inhibition at 10 µM [1] of 98%, an IC50 [1] of 0.182 µM and an IC50 (A2780 ovarian cells [2]) of over 10 µM were found for COc1cc2cc(-c3ccc(C4=NC5(CC5)C(=O)N4C[C@@H]4CCN(C(=O)C5CC5)C4)cc3)ccc2cn1 [compound 470, 6-{[(3R)-1-(Cyclopropylcarbonyl)pyrrolidin-3-yl]methyl}-5-[4-(3-methoxyisoquinolin-6-yl)phenyl]-4,6-diazaspiro[2.4]hept-4-en-7-one] in this work. The IC50 [3] was about 0.631 µM, the IC50 [4] was 0.115 µM and the IC50 [5] was 1.48 µM. The IC50 (A2780 ovarian cells [6]) was about 0.933 µM.

An inhibition at 10 µM [1] of 102%, an IC50 [1] of 0.0257 µM and an IC50 (A2780 ovarian cells [2]) of 6.46 µM were found for O=C(C1CC1)N1CC(CN2C(=O)C3(CC3)N=C2c2ccc(-c3ccc4cc(Cl)ccc4c3)cc2F)C1 [compound 320, 5-(4-(6-chloronaphthalen-2-yl)-2-fluorophenyl)-6-((1-(cyclopropanecarbonyl)azetidin-3-yl)methyl)-4,6-diazaspiro[2.4]hept-4-en-7-one] in this work. For the same compound, the IC50 [3] was 0.0501 µM, the IC50 [4] was about 0.0269 µM and the IC50 [5] was 0.251 µM. The IC50 (A2780 ovarian cells [6]) was 0.0251 µM.

An inhibition at 10 µM [1] of 95%, an IC50 [1] of 0.038 µM and an IC50 (A2780 ovarian cells [2]) of 5.25 µM were found for N#Cc1ccc2cc(-c3ccc(C4=NC5(CC5)C(=O)N4CC4CN(C(=O)C5(F)CC5)C4)c(F)c3)ccc2c1 [compound 225, 6-(3-fluoro-4-(6-((1-(1-fluorocyclopropanecarbonyl)azetidin-3-yl)methyl)-7-oxo-4,6-diazaspiro[2.4]hept-4-en-5-yl)phenyl)-2-naphthonitrile] in this work. The IC50 [3] was 0.0269 µM, the IC50 [4] was 0.0741 µM and the IC50 [5] was 0.158 µM. For the same compound, the IC50 (A2780 ovarian cells [6]) was 0.0251 µM.

An inhibition at 10 µM [1] of 103%, an IC50 [1] of 0.151 µM and an IC50 (A2780 ovarian cells [2]) of over 10 µM were found for Cc1sc2ccc(-c3ccc(C4=NC5(CC5)C(=O)N4CC4CN(C(=O)C5CC5)C4)cc3)cc2c1C [compound 418, 6-{[1-(Cyclopropylcarbonyl)azetidin-3-yl]methyl}-5-[4-(2,3-dimethyl-1-benzothiophen-5-yl)phenyl]-4,6-diazaspiro[2.4]hept-4-en-7-one] in this work. The IC50 [3] was 1.58 µM, the IC50 [4] was 0.302 µM and the IC50 [5] was about 2.51 µM. For the same compound, the IC50 (A2780 ovarian cells [6]) was about 2.14 µM.

Source: US10077261B2, “Imidazolin-5-one derivative useful as FASN inhibitors for the treatment of cancer” (Janssen Pharmaceutica NV, priority 2012, dated 2018)
